Data on one substance can be found in patent US20240166765A1, “INFLAMMATORY DISEASE TREATMENT USING ANTI-TISSUE FACTOR ANTIBODIES” (Iconic Therapeutics LLC, priority 2020, published 2024).

The target in experiment [1] is T1, human TF (TF-positive MDA-MB-231 cells) (Homo sapiens, UniProt P13726).
T1 construct: Human TF-positive cancer cell lines A431 and MDA-MB-231; host or cells: MDA-MB-231
Description: Antibody competition assay with 39A on MDA-MB-231 cells. It is filed as binding. Conditions: 20 nM 39A-Alexa488. The method, then:
(§1) Alexa Fluor antibodies were generated using Alexa Fluor 488 5-sulfo-[…] esters (ThermoFisher Scientific) following manufacturer's protocol. Excess Alexa Fluor dye was removed from the antibody dye conjugate preparations by gel filtration (ThermoFisher Scientific).
(§2) After another 1 hr incubation on ice, cells were washed, stained with a viability dye, and analyzed by flow cytometry. The Alexa488 fluorescence data from viable cells was summarized using median fluorescence intensity.

The target of experiment [2] is T1, human TF (TF-positive MDA-MB-231 cells). Briefly: FVIIa competition assay (FVII-Fc Alexa488) on MDA-MB-231 cells. Conditions: highest concentration of antibody; Example 26. It is filed as binding.
Description: To evaluate competition between FVIJa and the human antibodies against TF, TF-positive MIDA-MB-231 cells (ATCC, Manassas, VA, USA) were first incubated for 1 hr on ice with a titration of the human antibodies against TF. Subsequently, a final concentration of 20 nM of FVII-Fc conjugated to Alexa488 was added to the antibody cell mixture. After another 1 hr incubation on ice, cells were washed, stained with a viability dye, and analyzed by flow cytometry. The Alexa488 fluorescence data from viable cells was summarized using median fluorescence intensity.
Subsequently, FVII-Fc conjugated to Alexa488 was added to the antibody-cell mixture at a final concentration of 20 nM. After another 1 hr incubation on ice, cells were washed, stained with a viability dye, and analyzed by flow cytometry. The Alexa488 fluorescence data from viable cells was summarized using median fluorescence intensity (MFI).
The test system of experiment [3] is thrombin generation (relipidated TF in normal pooled plasma). Briefly: Thrombin generation assay (TGA) without antibody pre-incubation. Conditions: Ab conc. 10 nM, Table 44. It counts as biochemical, human. The procedure: (§3) The TGA assay was performed using the calibrated-automated-thrombogram (CAT) instrument manufactured and distributed by STAGO. The test method design was equivalent to a standard CAT assay measurement, except that the plasma source was NPP in citrate/CTI. […] Relipidated TF was added to a 96-well assay plate, followed by addition of the antibody/NPP mixture. After a 10-min incubation or directly after combining the relipidated TF with antibody/NPP, thrombin generation was initiated by the addition of calcium and the thrombin substrate. The STAGO software was used to report the following parameters: Peak IIa (highest thrombin concentration generated [nM]); Lag Time (time to IIa generation [min]); ETP (endogenous thrombin potential, area under the curve [nM×min]); and ttPeak (time to Peak IIa [min]).
as §3, with “was normal pooled plasma (NPP)” for “was NPP”, “in citrate supplemented with corn trypsin inhibitor (citrate/CTI).” for “in citrate/CTI.”
(§4) TGA assay was performed using the calibrated-automated-thrombogram (CAT) instrument manufactured and distributed by STAGO (Diagnostica Stago SAS, Asnieres sur Seine, France). […] The anti-TF antibodies were titrated at 0, 10, 50 and 100 nM and mixed with NPP in citrate/CTI. Relipidated TF was added to a 96-well assay plate, followed by addition of the antibody/NPP mixture. After a 10-min incubation or directly after combining the relipidated TF with antibody/NPP, thrombin generation was initiated by the addition of calcium and the thrombin substrate. The STAGO software was used to report the following parameters: Peak IIa (highest thrombin concentration generated on the thrombin generation curve [nM]); Lag Time (time from assay start to the moment 10 nM of thrombin is formed [min]); ETP (endogenous thrombin potential, area under the curve [nM×min]); and ttPeak (time from assay start to Peak IIa [min]). […] As used herein, the term “thrombin generation assay” (TGA) refers to the TGA used in this example.

Experiment [4] has the same test system. Description: Thrombin generation assay (TGA) with 10 min antibody pre-incubation. It counts as biochemical, human. Conditions: Ab conc. 10 nM. The method, then:
as §3
as §3, with “was normal pooled plasma (NPP)” for “was NPP”, “in citrate supplemented with corn trypsin inhibitor (citrate/CTI).” for “in citrate/CTI.”
as §4

A further experiment concerns the target T2, TF:FVIIa (Homo sapiens, UniProt P13726).
T2 construct: host or cells: MDA-MB-231
Description: FXa conversion assay on MDA-MB-231 cells. It counts as cell-based. Conditions: concentrations of 25, 50, and 100 nM; Example 26. The procedure: To evaluate the ability of TF:FVIIa to convert FX into FXa in the presence of human antibodies against TF, 5×10^4 MDA-MB-231 cells (ATCC, Manassas, VA, USA) were plated into tissue culture-treated black 96-well plates (Greiner Bio-One, Monroe, NC, USA). […] Upon reconstitution of the binary TF:FVIIa complex with a final concentration of 20 nM of FVIIa, cells were incubated for 5 min at 37° C.
Briefly, 5×10^4 MDA-MB-231 cells (ATCC, Manassas, VA, USA) were plated into tissue culture-treated black 96-well plates (Greiner Bio-One, Monroe, NC, USA) and cultured overnight. […] Upon reconstitution of the binary TF:FVIIa complex with a final concentration of 20 nM of FVIIa, cells were incubated for 5 min at 37° C.

Experiment [5] deals with T1, human TF (TF-positive MDA-MB-231 cells). Description: Antibody competition assay with 25A3 on MDA-MB-231 cells. Particulars: 20 nM 25A3-Alexa488. It is filed as binding. The procedure: as §1, §2
Another experiment relates to TF-positive A431 cells. Description: Cytotoxicity assay of ADCs, A431 cells. Particulars: Primary ADC. It is filed as cell-based, human. The method, then:
To evaluate cytotoxicity of ADCs, TF-positive A431 and HPAF-II cells were plated in 384-well plates (Greiner Bio-One, Monroe, NC, USA) at 4×10^3 cells per well in 40 μL of media. Anti-TF antibodies conjugated to MC-vc-PAB-MMAE were serially diluted starting at 5 nM. Plates were incubated for 3 to 4 days, followed by lysis in CellTiter-Glo (CTG) assay reagent (Promega, Madison, WI, USA). CTG luminescence was measured on an Envision plate reader and the mean and standard deviation of 4 replicates were graphed in Prism.
To evaluate ADC cytotoxicity, A431 cells were plated in 384-well plates (Greiner Bio-One). Anti-TF antibodies conjugated to MC-vc-PAB-MMAE were serially diluted as shown. The TF-specific ADCs were added to A431 cells, with either a 72 h incubation or a 4 h incubation followed by removal of excess ADC and culture for another 68 h. A431 cells were lysed in CTG assay reagent after treatment. CTG luminescence was measured and the mean and standard deviation of 4 replicates graphed in Prism.

What is called IC50 is the midpoint of a concentration-inhibition curve.

T1 sequence (P13726 33-295): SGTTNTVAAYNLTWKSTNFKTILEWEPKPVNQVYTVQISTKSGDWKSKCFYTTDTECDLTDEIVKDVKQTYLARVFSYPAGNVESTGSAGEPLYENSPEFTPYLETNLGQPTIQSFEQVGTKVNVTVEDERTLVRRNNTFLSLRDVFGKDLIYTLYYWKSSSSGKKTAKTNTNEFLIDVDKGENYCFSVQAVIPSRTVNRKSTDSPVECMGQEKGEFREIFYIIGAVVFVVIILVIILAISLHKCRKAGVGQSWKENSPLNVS
T2 sequence (P13726 33-295): as above

As to TF-011, the “% 39A binding” value in experiment [1] is “reduced”. For the same substance, the “competition with FVII” value in experiment [2] is on record as “effectively competed with FVII”. In addition, the values for the ETP in experiment [3] and in experiment [4] were 1714 nM·min and 792 nM·min, respectively. In addition, the “inhibited FX conversion by” value with TF:FVIIa is on record as 57-59%. Moreover, the “% 25A3 binding” value in experiment [5] is reported as “did not reduce”. In addition, the IC50 in the experiment with TF-positive A431 cells (4 hr, followed by washout, FIG. 20B) was found to be 0.17 nM; in the experiment on TF-positive A431 cells (4 hr, followed by washout, FIG. 21A), 0.09 nM; in the experiment on TF-positive A431 cells (Continuous treatment, FIG. 20A), 0.05 nM.
